According to patent US10695279B2, “Peptide having skin-whitening activity and use thereof” (CAREGEN CO., LTD., priority 2017, dated 2020):

How the values were obtained:
MITF [1] = conditions: B16F10, α-MSH (200 ng/ml), peptide 50, 100 uM, 72 hours, western blot; FIG. 7
Procedure: (§1) After melanin-forming cells (B16F10 cell line) were incubated in 6-well culture plates for 24 hours, the cells were treated with α-MSH (200 ng/ml) or the present peptide at different concentrations (50, 100 uM).

CREB = conditions: B16F10, α-MSH (200 ng/ml), peptide 50, 100 uM, 10 minutes, western blot; FIG. 8
Procedure: as §1

MITF [2] = conditions: B16F10, α-MSH (200 ng/ml), peptide 100, 200 uM, 24 hours, PCR; FIG. 6
Procedure: (§2) After melanin-forming cells (B16F10 cell line) were incubated in 6-well culture plates for 24 hours, the cells were treated with α-MSH (200 ng/ml), arbutin (500 uM), or the present peptide at different concentrations (100, 200 uM). After RNA was extracted from the cells incubated for 24 hours, cDNA was prepared. Then, PCR was conducted using the primers shown in Table 2 below, which are specific to MITF, tyrosinase, and TRP1, respectively, as melanogenesis-involved factors, and then the change in the expression of each gene was observed.

TRP1 = conditions: B16F10, α-MSH (200 ng/ml), peptide 100, 200 uM, 24 hours, PCR; FIG. 6
Procedure: as §2

C57BL/6 mice = test: In vivo whitening effect, application to the tail; conditions: C57BL/6 mice tail skin, liposomal peptide 5,000 ppm once a day, about 8 weeks, F&M staining, versus control group; FIGS. 14b and 14c
Procedure: Liposomal peptide (5,000 ppm) or arbutin as a positive control was applied to the tail of 8-week-old C57BL/6 mice once a day, and the experiment was conducted for about 8 weeks. After the completion of the experiment, the mice were sacrificed to extract tail skin tissues, which were then embedded in paraffin to manufacture paraffin blocks. Then, the paraffin blocks were made into paraffin sections and morphologically observed through Fontana-Masson staining.

tyrosinase [3] = test: Protein expression of melanin-forming factors (western blot): tyrosinase; assay type: cell-based, mouse; conditions: B16F10, α-MSH (200 ng/ml), peptide 50, 100 uM, 72 hours, FIG. 7
[4] = test system: human keratinocyte line (HaCaT); conditions: melanosomes isolated from B16F10, peptide 10, 50, 100, 200 uM, 48 hours, Fontana-Masson staining, dose-dependent, FIG. 11
Procedure: After human keratinocyte line (HaCaT) was cultured in 6-well culture plates for 24 hours, the melanosomes isolated from mouse melanoma cell line (B16F10) were pretreated for 3 hours in serum-free culture medium. Then, the cells were treated with the present peptide at different concentrations (10, 50, 100, 200 uM) or arbutin (200 uM) as a positive control, followed by incubation for 48 hours. Then, the plates were washed with PBS to remove un-transferred melanosomes, and subjected to Fontana-Masson staining to observe the inhibition of the melanosome phagocytosis by keratinocytes through a microscope.

[5] = test system: human keratinocyte line (HaCaT); conditions: melanosomes isolated from B16F10, peptide 10, 50, 100, 200 uM, 48 hours, FIG. 10
Procedure: After human keratinocyte line (HaCaT) was cultured in 6-well culture plates for 24 hours, the melanosomes isolated from mouse melanoma cell line (B16F10) were pretreated for 3 hours in serum-free culture medium, and then the cells were treated with the present peptide at different concentrations (10, 50, 100, 200 uM) or arbutin (200 uM) as a positive control, followed by incubation for 48 hours. Then, the plates were washed with PBS to remove un-transferred melanosomes, and 1 N NaOH was added to pellets, which had been obtained through cell collection and precipitation. Then, 1 M NaOH was added to the pellets, and the pellets were dissolved in an oven at 80° C., and then the OD value at 490 nm was measured.

[6] = test system: human keratinocyte line (HaCaT); conditions: melanosomes pretreated 48 hours, peptide 100, 200 uM, dose-dependent, FIG. 13
Procedure: After human keratinocyte line (HaCaT) was cultured in 6-well culture plates for 24 hours, melanosomes isolated from mouse melanoma cell line (B16F10) were pretreated for 48 hours in serum-free culture medium. The plates were washed with PBS to remove un-transferred melanosomes, and then the cells were treated with the peptide at different concentrations (100, 200 uM) or arbutin (200 uM) as a positive control, and TGFβ-1, followed by incubation for 48 hours. In order to measure the degradation of melanosomes phagocytized into keratinocytes, 1 M NaOH was added to pellets obtained by keratinocyte collection and precipitation, and the pellets were dissolved in an oven at 80° C., and then the OD value at 490 nm was measured.

tyrosinase [7] = test: Measurement of tyrosinase expression level (fluorescence microscope, tyrosinase antibody); assay type: cell-based, mouse; conditions: B16F10, α-MSH (200 ng/ml), peptide 50, 100 uM, 48 hours; dose-dependent; FIG. 5
Procedure: Then, the cells were incubated for 48 hours, and the intracellular expression protein was stained with FITC-conjugated tyrosinase antibody (Santa Cruz biotechnology, USA) and FITC-conjugated secondary IgG antibody (Santa Cruz biotechnology, USA).

tyrosinase [8] = molecular target: T1, tyrosinase (Mus musculus, UniProt P11344); test: Measurement of tyrosinase activity in cells (L-dopa, absorbance at 475 nm); assay type: cell-based; conditions: B16F10, α-MSH (200 ng/ml), peptide 50, 100, 200 uM, 72 hours; dose-dependent, **P≤0.01; FIG. 4
T1 construct: endogenous in cells; host or cells: B16F10 mouse melanoma cells
T1 sequence (P11344 19-533): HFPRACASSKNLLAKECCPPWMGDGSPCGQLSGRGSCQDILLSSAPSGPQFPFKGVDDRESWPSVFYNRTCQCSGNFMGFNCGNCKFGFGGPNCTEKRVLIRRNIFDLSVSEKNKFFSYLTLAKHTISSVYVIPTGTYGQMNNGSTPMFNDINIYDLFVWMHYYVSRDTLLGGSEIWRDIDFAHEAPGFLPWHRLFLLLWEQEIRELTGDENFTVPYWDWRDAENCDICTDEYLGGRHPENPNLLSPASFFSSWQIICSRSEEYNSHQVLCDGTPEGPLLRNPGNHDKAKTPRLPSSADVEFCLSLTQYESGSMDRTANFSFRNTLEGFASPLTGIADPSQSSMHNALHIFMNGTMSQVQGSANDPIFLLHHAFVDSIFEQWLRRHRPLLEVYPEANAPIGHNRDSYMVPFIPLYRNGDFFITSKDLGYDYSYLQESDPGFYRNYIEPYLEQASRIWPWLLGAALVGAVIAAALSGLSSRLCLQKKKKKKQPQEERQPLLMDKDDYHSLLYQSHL
Procedure: The 6-well culture plates were loaded on ice and washed with cool PBS, and then 300 μl of 0.1 M sodium phosphate buffer (pH 6.8 lysis buffer) containing 1% Triton X-100 was added. The cells were collected in a 1.5 mL tube, and then cell membranes were disrupted by repeating rapid-freezing at […] and thawing, five times. Then, the tube was centrifuged at 13,000 rpm for 20 minutes, and then the supernatant was collected in another 1.5 mL tube, and the protein content of the samples was quantified. The samples were diluted to have the same protein concentration and then dispensed in three wells each in a 96-well culture plate, and then 20 μl of 10 mM L-dopa was added, followed by incubation at 37° C. for 1 hour.

tyrosinase [9] = test: Gene expression of melanin-forming factors (PCR): tyrosinase; assay type: cell-based, mouse; conditions: B16F10, α-MSH (200 ng/ml), peptide 100, 200 uM, 24 hours, FIG. 6
[10] = test system: melanin-forming cells (B16F10 cell line); conditions: B16F10, α-MSH (200 ng/ml), peptide 50, 100, 200 uM, 72 hours; dose-dependent, **P≤0.01; FIGS. 2a and 2b
Procedure: After melanin-forming cells (B16F10 cell line) dispensed in 6-well culture plates were incubated in a 37° C. incubator for 24 hours, the medium for each plate was removed and then replaced with new medium (2% serum medium). Then, the cells were treated with α-MSH (200 ng/ml), arbutin (200, 500 uM), or the peptide of the present invention at different concentrations (50, 100, 200 uM). Thereafter, the cells were incubated for 72 hours, and then the culture medium was removed. The cells were detached and then transferred into a 1.5 ml tube, followed by centrifugation at 13,000 rpm for 3 minutes. The supernatant was removed, and cell pellets were collected to observe melanin. Then, 150 μl of 2 M NaOH was added to the cell pellets to lyse intracellular melanin at 60° C. for 30 minutes. Then, 100 μl of the supernatant obtained from the lysis was added into each well of a 96-well plate, and the absorbance at 490 nm was measured.

[11] = test system: melanin-forming cells (B16F10 cell line); conditions: B16F10, α-MSH (200 ng/ml), peptide 50, 100, 200 uM, 72 hours; dose-dependent; FIG. 3
Procedure: After melanin-forming cells (B16F10 cell line) dispensed in 6-well culture plates were incubated in a 37° C. incubator for 24 hours, the medium for each plate was removed and replaced with new medium (10% serum medium). Then, the cells were treated with α-MSH (200 ng/ml), arbutin (500 uM), or the peptide of the present invention at different concentrations (50, 100, 200 uM). The cells were incubated for 72 hours, and then the formed melanin was observed through an optical microscope.

PAR2 = conditions: HaCaT, trypsin-induced, peptide 100, 200 uM, 16 hours, PCR; FIG. 9
Procedure: After a human keratinocyte line (HaCaT) was incubated in 6-well culture plates for 24 hours, the cells were treated with trypsin as an activity-inducing material and the present peptide at different concentrations (100, 200 uM). After RNA was extracted from the cells incubated for 16 hours, cDNA was prepared.
PCR was conducted using a primer pair (see table 3 below) specific to PAR2, which is one of surface receptors of keratocytes activated by a trypsin action, and then the change in the expression of each gene was observed.

[12] = test system: human keratinocyte line (HaCaT); conditions: peptide 100, 200 uM, 24 hours, Vybrant Phagocytosis Assay Kit, FIG. 12
Procedure: After human keratinocyte line (HaCaT) was cultured in 24-well culture plates for 24 hours, the cells were treated with the present peptide at different concentrations (100, 200 uM) or arbutin (200 uM) as a positive control in 0.5% FBS culture medium, followed by incubation for 24 hours. Thereafter, the inhibition of phagocytosis of the human keratinocyte line was observed using the Vybrant Phagocytosis Assay Kit (V-6694).

## Feruloyl-Ile-Trp-Ser-Leu-Asp-Thr-Gln-Tyr-Gly-Gly-Arg-Gly-Asp-COOH
MITF [1]
  MITF protein expression: MITF and tyrosinase protein expression inhibitory effects
CREB
  degree of phosphorylation of CREB: CREB phosphorylation inhibitory effect
MITF [2]
  MITF gene expression: strong effects of inhibiting MITF, tyrosinase, and TRP1 genes
TRP1
  TRP1 gene expression: strong effects of inhibiting MITF, tyrosinase, and TRP1 genes
C57BL/6 mice
  amount of melanin distributed in the basal layer of the epidermis: significantly smaller than that in the control group
Tyrosinase [3]
  tyrosinase protein expression: MITF and tyrosinase protein expression inhibitory effects
[4]
  amount of melanosomes transferred into keratinocytes (optical microscope image analysis): phagocytosis inhibitory effect
[5]
  amount of melanosomes transferred into keratinocytes (absorbance): phagocytosis inhibitory effect
[6]
  degradation of melanosomes transferred into keratinocytes: promote the degradation of the melanosomes transferred into the keratinocytes
Tyrosinase [7]
  tyrosinase expression level: tyrosinase expression inhibitory effect
Tyrosinase [8]
  tyrosinase activity in cells: tyrosinase activity inhibitory effect
Tyrosinase [9]
  tyrosinase gene expression: strong effects of inhibiting MITF, tyrosinase, and TRP1 genes
[10]
  melanin production: melanogenesis inhibitory effect
[11]
  melanin formation observed through cell morphology: melanogenesis inhibitory effect
PAR2
  PAR2 gene expression: reduced the expression of PAR2 gene in a dose-dependent manner
[12]
  amount of bioparticles transferred into keratinocytes (fluorescent microscopic image analysis): distinctive phagocytosis inhibitory effect
